{"source": "paper PMC8778264", "about": "(Nanomaterials, 2022)", "format_in_all_cases": "cell-based", "key": {"CRL-1739 cells [1]": {"tested_on": "CRL-1739 cells", "assay": "In vitro cytotoxicity (MTT assay)", "conditions": "48 h treatment", "procedure": "The cell line was cultured in DMEM supported with 10% fetal bovine serum, 0.5 mg/mL glutamine/penicillin streptomycin at 37 °C and 5% CO2. […] Ninety-six well flat-bottom plates and […] DMEM were used for the seeding procedure. […] Then, 100 μL of MTT solution (5 mg/mL) was put into each well and incubated at 37 °C. The culture medium was removed. Then, 200 μL of dimethysulfoxide was added to obtain the dissolution of the MTT formazan crystals. The absorbance was read at 570 nm using a microplate reader."}, "CRL-1739 cells [2]": {"tested_on": "CRL-1739 cells", "assay": "Cellular uptake and cell apoptosis analysis by flow cytometry (Annexin V-FITC / propidium iodide)", "conditions": "0.05 and 2 mg/mL, 24 h", "procedure": "(§1) The control group comprised untreated cells and fresh culture medium without test compounds. CRL-1739 cells were seeded to a 5 × 10^4 cell density in 24-well plates. […] After the administration of formulations, cells were washed with PBS three times. The cells were trypsinized and suspended in fresh PBS with 10% fetal bovine serum.\nThe suspended formulations were incubated with 5 μL of Annexin V-FITC and 5 μL of propidium iodide for 15 min at room temperature in the dark. The cell suspensions were analyzed by using Guava easy Cyte in terms of cellular uptake."}, "CRL-1739 cells [3]": {"tested_on": "CRL-1739 cells", "assay": "Fluorescence microscopy (Hoechst 33342)", "procedure": "as §1\nAfter treatment with the formulations, CRL-1739 cells were fixed and stained with Hoechst 33342 (blue). The cellular uptake of formulations was performed with a Nikon eclipse fluorescence microscope (Nikon, Japan) at a magnification of 1000×. The stained cell nuclei were evaluated."}}, "data": [{"smiles": "Cc1ccc(NC(=O)c2ccc(CN3CCN(C)CC3)cc2)cc1Nc1nccc(-c2cccnc2)n1", "note": "[IMT, Imatinib]", "values": [{"measurement": "cell viability", "setting": "CRL-1739 cells [1]", "result": 70.5, "unit": "%"}, {"measurement": "cellular uptake (fluorescence intensity, flow cytometry)", "setting": "CRL-1739 cells [2]", "result": "lower fluorescence intensity than cells administered with F16 and F16-IMT"}, {"measurement": "IMT location and distribution inside cells (fluorescence)", "setting": "CRL-1739 cells [3]", "result": "low fluorescence when compared to F16 and F16-IMT"}]}]}
